Article PMC7934800, “Amino- and polyaminophthalazin-1(2H)-ones: synthesis, coordination properties, and biological activity” (Beilstein Journal of Organic Chemistry, 2021)

How the values were obtained:
[1] = tested on: HT-29 (human colon adenocarcinoma cell line); experiment: MTT cytotoxicity assay, HT-29; format: cell-based; settings: 72 h of cell treatment, HT-29 cells
Source text: (§1) We used the MTT assay to evaluate compounds 5c, 5d, 5f, 5g, 6b, and 6d for their potential activity on cytotoxicity, proliferation and growth of HT-29 (human colon adenocarcinoma cell line), PC-3 (human prostate cancer cell line) and L-929 cells (mouse fibroblast cell line).
(§2) 2.1 Materials and methods:
(§3) Trypsin-EDTA and all media (RPMI 1640, DMEM/F-12K and IMDM) were purchased from Biowest (CytoGen, Poland). Buffered saline (PBS), penicillin-streptomycin solution stabilized, fetal bovine serum (FBS), amino acids solution (MEM), β-mercaptoethanol, dimethyl sulfoxide (DMSO) and MTT 3-(4,5-dimethylthiazol-2-yl)- […] bromide were supplied by Sigma Aldrich Chemical Co (USA).
(§4) All tested cell lines were provided by American Type Culture Collection (ATCC, […]
(§5) Rockville, Manassas,VA, USA). […]
The HT-29 cells were cultured in RPMI-1640 medium containing 2 mM L-glutamine, 10 mM HEPES, 1 mM sodium pyruvate, 4500 mg/L glucose and 1500 mg/L sodium bicarbonate, supplemented with 10% (v/v) fetal bovine serum (FBS), 1% (v/v) penicillin/streptomycin and 1% (v/v) MEM amino acid’s solution. […]
(§6) Cells were maintained in a humidified incubator at 37 °C in a 5% CO2 atmosphere and were regularly screened for mycoplasma contamination. Exponential growth of the cells was controlled by their routine passaging at 90% confluence three times a week using 0.025% trypsin/EDTA.
(§7) 2.3 Cytotoxicity analysis – MTT assay:
(§8) The viability of the cells is associated with their mitochondrial integrity and capacity.
(§9) For that reason, in the MTT microplate assay with 3-(4,5-dimethylthiazol-2-yl)-[…] bromide, first described by Mosmann [ 5], only viable cells with intact metabolism have the ability to incorporate the yellow, water-soluble tetrazolium […]
(§10) dehydrogenase to the violet-blue formazan compound. After dissolving the formazan crystals in an organic solvent, e.g., dimethyl sulfoxide (DMSO), the absorbance of the formazan solution can be measured spectrophotometrically at 570 nm.
(§11) In our research, the MTT assay was used to describe the effect of the tested compounds on cytotoxicity, proliferation and growth of HT-29, PC-3 and L-929 cells.
(§12) Before treatments with the tested compounds the suspension of 8×10^3 cells in 100 µ L medium was transferred to each well of a standard 96-well microplate. Subsequently, the plates were incubated for 24 h (5% CO 2; 37 °C) to ensure cell growth.
(§13) Afterwards, the examined substances at 10 different concentrations were added in 2– […]
(§14) volume of 100 µL medium per well. These concentrations were obtained diluting the compounds first in DMSO and then in medium, which were subsequently used to treat cells cultures in a final DMSO concentration between 0.1 and 1% per well [6] (Da Violante et. al. 2002). As control, the first and last columns were filled only with medium […]
(§15) without studied compounds. Furthermore, blanks (wells without cells) were also […]
(§16) The plates were then incubated for 72 h (37 °C; 5% CO2). Subsequently, 25 µL of fresh MTT solution (5 mg/mL in PBS) was added to each well and the microplates were incubated in a humidified atmosphere for additional 3 h (37 °C; 5% CO2). After the incubation, the MTT solution was replaced by 100 µL of DMSO in order to dissolve formazan complexes and absorbance was immediately measured (microplate reader PowerWaveXS BioTek Instruments, Inc., USA) at 570 nm.
(§17) The IC50 value (concentration of an inhibitor which reduces the absorbance level in the treated cells in comparison to untreated cells by half) representing the cytotoxicity of a substance was evaluated for each studied compound using the GraphPad Prism 7.0 software system (GraphPad Prism Software Inc., USA). To determinate statistical significance between the results one-way variance analysis (ANOVA) was used. The samples homogeneity was tested using Bartlett’s test, followed by Dunnett’s test. All data are presented as the mean of the replicates from three independent experiments, with a significance level of p ≤ 0.05.

[2] = tested on: PC-3 (human prostate cancer cell line); experiment: MTT cytotoxicity assay, PC-3; format: cell-based; settings: 72 h of cell treatment, PC-3 cells
Source text: as §1, §2, §3, §4, §5, §6, §7, §8, §9, §10, §11, §12, §13, §14, §15, §16, §17

[3] = tested on: L-929 cells (mouse fibroblast cell line); experiment: MTT cytotoxicity assay, L-929; format: cell-based; settings: L929, 72 h of cell treatment, L-929 control (non-cancer) cells
Source text: as §1, §2, §3, §4, §5
In addition, the mouse fibroblast cell line
(L-929; ATCC® CCL-1™) was used as a model for non-cancer cells. […]
The L-929 was cultivated in IMDM Medium with 4 mM L-glutamine, 4500 mg/L glucose, and 1500 mg/L sodium bicarbonate supplemented with 10% (v/v) fetal bovine serum (FBS), 1% (v/v) penicillin/streptomycin and 1% (v/v) β-mercaptoethanol.
as §6, §7, §8, §9, §10, §11, §12, §13, §14, §15, §16
as §17, with “with a significance level of p ≤ 0.05.” left out

| SMILES | melting point | IC50 [1] | IC50 [2] | IC50 [3] |
| --- | --- | --- | --- | --- |
| CCN(CC)CCCC(C)Nc1nn(CCN(C)C)c(=O)c2ccccc12 (centres unmarked) [6e] | 58 to 60 °C | – | – | – |
| Cn1nc(NC2CCCCC2)c2ccccc2c1=O [5d] | – | 29.8 µM | 20.1 µM | 20.4 µM |
| Cn1nc(N2CCCCC2)c2ccccc2c1=O [5c] | 92 to 93 °C | 36.7 µM | 46 µM | 27.4 µM |
| Cn1nc(NCc2ccc(C(F)(F)F)cc2)c2ccccc2c1=O [5g] | 216 to 218 °C | 31.4 µM | 22.4 µM | 21.3 µM |
| Cn1nc(N2CCSCC2)c2ccccc2c1=O [5b] | 132 to 134 °C | – | – | – |
| Cn1nc(N2CCOCC2)c2ccccc2c1=O [5a] | 135 to 136 °C | – | – | – |
| CNCCNc1nn(C)c(=O)c2ccccc12 [6d] | 153 to 155 °C | 75.6 µM | 83 µM | 52.7 µM |
| COc1ccc(CNc2nn(C(C)C)c(=O)c3ccccc23)cc1 [5h] | 108 to 110 °C | – | – | – |
| CC(C)n1nc(NCCc2cccs2)c2ccccc2c1=O [5f] | 121 to 123 °C | 27.4 µM | 27.3 µM | 20.1 µM |
| CCCCCCNc1nn(C(C)C)c(=O)c2ccccc12 [5e] | 86 to 87 °C | – | – | – |
| Cn1nc(N(c2ccccc2)c2ccccn2)c2ccccc2c1=O [5i] | 160 to 163 °C | – | – | – |
| CCN(CC)CCCC(C)Nc1nn(C)c(=O)c2ccccc12 (centres unmarked) [6b] | 84 to 86 °C | 51.6 µM | 66.3 µM | 92.9 µM |
